Data reported in paper PMC8418874 (European journal of medicinal chemistry, 2018).

Experiments:
SKOV-3 cells [1] = assay: Fluorescence microscopy, cellular localization; format: cell-based, human; settings: SKOV-3, 5 μM, DAPI nuclear stain
SKOV-3 cells [2] = assay: Cellular uptake by flow cytometry; format: cell-based, human; settings: SKOV-3, Dox 5 μM, Dox-SS-Pyr 50 μM, Dox-SS-[C(WR)4K] 50 μM, 3 h, 37 °C, serum-free medium, triplicate
HT-1080 cells = assay: Cellular uptake by flow cytometry; format: cell-based, human; settings: HT-1080, Dox 5 μM, Dox-SS-Pyr 50 μM, Dox-SS-[C(WR)4K] 50 μM, 3 h, 37 °C, serum-free medium, triplicate
[3] = system: human ovarian cancer cells (SKOV-3); assay: Antiproliferative activity / viability assay; format: cell-based; settings: SK-OV-3, 24 h, read-out: inhibition of cell proliferation

Row | Compound | cellular localization (SKOV-3 cells [1]; after 1 h) | cellular localization (SKOV-3 cells [1]; after 24 h) | cellular uptake (mean fluorescence) (SKOV-3 cells [2]) | cellular uptake (mean fluorescence) (HT-1080 cells) | inhibition at 5 µM [3]
1 | COc1cccc2c1C(=O)c1c(O)c3c(c(O)c1C2=O)C[C@@](O)(C(=O)CO)C[C@@H]3O[C@H]1C[C@H](N)[C@H](O)[C@H](C)O1 [Dox, Doxorubicin] | localized in the nucleus | localized in the nucleus | higher cellular uptake in SKOV-3 and HT-1080 cells | higher cellular uptake in SKOV-3 and HT-1080 cells | 76%
2 | COc1cccc2c1C(=O)c1c(O)c3c(c(O)c1C2=O)C[C@@](O)(C(=O)CO)C[C@@H]3O[C@H]1C[C@H](NC(=N)CCCS)[C@H](O)[C@H](C)O1 [Dox-SH, thiolated doxorubicin] | distributed mostly outside the nucleus | – | – | – | –
3 | COc1cccc2c1C(=O)c1c(O)c3c(c(O)c1C2=O)C[C@@](O)(C(=O)CO)C[C@@H]3O[C@H]1C[C@H](NC(=N)CCCSSc2ccccn2)[C@H](O)[C@H](C)O1 [Dox-SS-Pyr, pyridyl doxorubicin] | distributed mostly outside the nucleus | – | – | – | –
